Results taken from patent EP0097468A2, “Thio-naphthotriazoles, methods for producing them and their use in treating allergic diseases” (BEECHAM GROUP PLC, priority 1982, dated 1984).

Tested on: rat PCA
Assay: Passive cutaneous anaphylaxis (PCA) in rats
Type: in vivo
Conditions: iv, PBS with NaHCO3, time 0 mins before antigen challenge
Experimental: Serum containing heat labile homocytotropic antibody was raised in rats to crystallised ovalbumin (Grade 3 Sigma) by the Method of I.Mota (Immunology 7, 681 (1964)) using Bordetella pertussis vaccine ([…] Burroughs Welcome) as adjuvant.
Passive cutaneous anaphylaxis (PCA) was carried out by a method based on that of Ovary and Bier, (Proc. Soc. Exp. Bio. Med., 81, 584 (1952)) as modified by Goose and Blair (Immunology, 16, 749 (1969)) Male Sprague Dawley rats 230-340 gm were given 0.1 ml of each of six two fold serial dilutions of pooled antiserum in 0.9% saline (Polyfusor Boots) injected intradermally into separate sites on their shaved backs. 72 hours later the rats were challenged by intravenous injection of 0.3 ml of a 1% solution of ovalbumin in isotonic saline buffered with 0.05M, pH 7.2 Sorenson'Buffer (Bactohaemagglutination buffer Difco Laboratories), mixed with 0,2 ml of a 5% solution of Pontamine Sky Blue (6 BX C.l. 24410 Raymond A Lamb) in isotonic saline. The rats were killed after 20 minutes and the diameter of the blue wheals at the antibody injection sites was measured on the outer surface of the skin. The starting dilution of the serum was adjusted so that there was no response, after challenge, at the injection site of the highest dilution and a maximum response at the lowest dilutions. Typically, six twofold serial dilutions of the serum from 1/4 to 1/128 were used.
Compounds were tested for their ability to reduce the diameter of the wheals at those intradermal sites which in control animals gave less than maximum response. Each dose of the compounds was administered to six rats at a measured time prior to intravenous challenge with ovalbumin. Control groups of six rats were given the same volume (0.2 ml: 100g-^1) of carrier fluid at the same time prior to the challenge.
The results were calculated as follows: % inhibition of PCA = 100 (1 - a/b) where a = the sum of the diameters of the wheals produced in the test animal at the sites of antibody dilutions as used in control groups and b = the mean sum of the diameters of the wheals produced in the control group of animals at those antibody sites where at least five out of six of the animals gave less than maximum response. A typical variation in the control group of animals was SEM± 6%.

Structure (SMILES) | inhibition in vivo at 0.5 mg/kg | inhibition in vivo at 1 mg/kg | inhibition in vivo at 10 mg/kg | also measured
CSc1cccc2c1C(=O)c1nn[nH]c1C2=O [Example 1, 4,9-Dihydro-4,9-dioxo-5-methylthio-lH-naphtho [2,-3-d]-v-triazole] | 35% | 68% |  | inhibition in vivo at 0.25 mg/kg: 23%
CCSc1cccc2c1C(=O)c1nn[nH]c1C2=O [Example 2, 4,9-Dihydro-4,9-dioxo-5-ethylthio-1H-naphtho[2,3-d]-v-triazole] | 40% |  |  | inhibition in vivo at 0.125 mg/kg: 31%; inhibition in vivo at 0.25 mg/kg: 27%
C[S+]([O-])c1cccc2c1C(=O)c1nn[nH]c1C2=O (stereo not shown) [Example 3, 4,9-Dihydro-4,9-dioxo-5-methylsulphinyl-lH-naphtho-[2,3-d]-v-triazole] | 84% |  |  | inhibition in vivo at 0.0625 mg/kg (0.0625 mg/kg): 35%; inhibition in vivo at 0.125 mg/kg: 56%; inhibition in vivo at 0.25 mg/kg: 79%
CS(=O)(=O)c1cccc2c1C(=O)c1nn[nH]c1C2=O [Example 4, 4,9-Dihydro-4,9-dioxo-5-methylsulphonyl-lH-naphtho-[2,3-d]-v-triazole] |  | 44% | 88% | 
CC[S+]([O-])c1cccc2c1C(=O)c1nn[nH]c1C2=O (stereo not shown) [Example 5, 4,9-dihydro-4,9-dioxo-5-ethysulphinyl-1H-naphtho[2,3-d]-v-triazole] | 39% |  |  | inhibition in vivo at 0.1 mg/kg: 65%
CCS(=O)(=O)c1cccc2c1C(=O)c1nn[nH]c1C2=O [Example 6, 4,9-Dihydro-4,9-dioxo-5-ethylsulphonyl-lH-naphtho[2,3-dl-v-triazole] |  | 39% | 82% | 
CCCSc1cccc2c1C(=O)c1nn[nH]c1C2=O [Example 7, 4,9-Dihyciro-4,9-dioxo-5-propylthio-1H-naphtho[2,3-d]-y-triazole] | 68% |  |  | inhibition in vivo at 5 mg/kg: 88%
CCC[S+]([O-])c1cccc2c1C(=O)c1nn[nH]c1C2=O (stereo not shown) [Example 8, 4,9-Dihydro-4,9-dioxo-5-propylsulphinyl-1H-naphtho[2,3-d] -v-triazole] | 88% |  |  | inhibition in vivo at 0.1 mg/kg: 74%
CCCS(=O)(=O)c1cccc2c1C(=O)c1nn[nH]c1C2=O [Example 9, 4,9-Dihydro-4,9-dioxo-5-propylsulphonyl-1H-naphtho[2,3-d] -v-triazole] |  | 51% | 87% | 
CSc1c(C)c(C)cc2c1C(=O)c1nn[nH]c1C2=O [Example 10, 6,7-Dimethyl-4,9-dihydro-4,9-dioxo-5-methylthio-1H-naphtho[2,3-d]-v-triazole] | 71% |  |  | inhibition in vivo at 5 mg/kg: 94%
Cc1cc2c(c([S+](C)[O-])c1C)C(=O)c1nn[nH]c1C2=O (stereo not shown) [Example 11, 6,7-Dimethyl-4,9-dihydro-4,9-dioxo-5-methylsulphinyl-1H-naphtho [2,3-d]-v-triazole] | 88% |  |  | inhibition in vivo at 0.1 mg/kg: 50%
Cc1cc2c(c(S(C)(=O)=O)c1C)C(=O)c1nn[nH]c1C2=O [Example 12, 6,7-Dimethyl-4,9-dihydro-4,9-dioxo-5-methylsulphonyl-1H-na^phtho [2,3-d]-v-triazole] |  | 92% | 92% | 
